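Method: 48-hour compound exposure of cells in 96-well plates, five concentrations, linear interpolation of endpoints. The concentration for 50% growth inhibition is given as GI50.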 The source made the active and inactive calls. Rule as the data show it: active = GI50 up to about 1.1 µM and inactive = higher.
Tests used:
Assay in all cases: inhibition of tumour cell growth, NCI panel, 48 h
RXF 393 = system: RXF 393
COLO 205 = system: COLO 205
SF-268 = system: SF-268
HOP-92 = system: HOP-92
SW-620 = system: SW-620
HL-60 = system: HL-60
OVCAR-3 = system: OVCAR-3
HCC 2998 = system: HCC 2998
MDA-MB-435 = system: MDA-MB-435
CAKI-1 = system: CAKI-1
SF-539 = system: SF-539
HCT-116 = system: HCT-116
NCI-H460 = system: NCI-H460
MCF7 = system: MCF7
BT-549 = system: BT-549
SK-MEL-5 = system: SK-MEL-5
NCI-H23 = system: NCI-H23
ACHN = system: ACHN
TK-10 = system: TK-10
SR = system: SR

Row | Structure (SMILES) | GI50 (RXF 393) | GI50 (COLO 205) | GI50 (SF-268) | GI50 (HOP-92) | GI50 (SW-620) | GI50 (HL-60) | GI50 (OVCAR-3) | GI50 (HCC 2998) | GI50 (MDA-MB-435) | GI50 (CAKI-1) | GI50 (SF-539) | GI50 (HCT-116) | GI50 (NCI-H460) | GI50 (MCF7) | GI50 (BT-549) | GI50 (SK-MEL-5) | GI50 (NCI-H23) | GI50 (ACHN) | GI50 (TK-10) | GI50 (SR)
1 | O=C(CCCc1ccccn1)c1ccccc1 | > 100 µM (inactive) | > 100 µM (inactive) | > 100 µM (inactive) | > 100 µM (inactive) | > 100 µM (inactive) | > 100 µM (inactive) | > 100 µM (inactive) | > 100 µM (inactive) | > 100 µM (inactive) | > 100 µM (inactive) | > 100 µM (inactive) | > 100 µM (inactive) | > 100 µM (inactive) | > 100 µM (inactive) | > 100 µM (inactive) | > 100 µM (inactive) | > 100 µM (inactive) | > 100 µM (inactive) | > 100 µM (inactive) | –
2 | O=C(c1cscc1CCc1ccccc1)c1cscc1CCc1ccccc1 | > 100 µM (inactive) | > 100 µM (inactive) | > 100 µM (inactive) | – | > 100 µM (inactive) | – | – | > 100 µM (inactive) | > 100 µM (inactive) | > 100 µM (inactive) | > 100 µM (inactive) | > 100 µM (inactive) | > 100 µM (inactive) | > 100 µM (inactive) | > 100 µM (inactive) | > 100 µM (inactive) | > 100 µM (inactive) | > 100 µM (inactive) | > 100 µM (inactive) | 80 µM (inactive)
3 | CCOC(=O)COc1cc(-c2ccccc2)nc2cc(F)ccc12 | > 100 µM (inactive) | > 100 µM (inactive) | > 100 µM (inactive) | 52 µM (inactive) | > 100 µM (inactive) | – | > 100 µM (inactive) | > 100 µM (inactive) | > 100 µM (inactive) | > 100 µM (inactive) | 39.7 µM (inactive) | > 100 µM (inactive) | – | > 100 µM (inactive) | > 100 µM (inactive) | > 100 µM (inactive) | > 100 µM (inactive) | – | > 100 µM (inactive) | > 100 µM (inactive)
4 | COC(=O)[C@]1(C)CCC[C@@]2(C)C1CC[C@]13C=C(C(C)C)[C@H](CC21)CC3(Cl)C#N (stereo partly specified) | 24.8 µM (inactive) | 41.6 µM (inactive) | 46.3 µM (inactive) | > 100 µM (inactive) | 37.6 µM (inactive) | – | 35 µM (inactive) | 29.8 µM (inactive) | 42.6 µM (inactive) | 66.1 µM (inactive) | 78 µM (inactive) | 14.9 µM (inactive) | 41.7 µM (inactive) | 27.4 µM (inactive) | 35.6 µM (inactive) | 37.8 µM (inactive) | 59.8 µM (inactive) | 43.9 µM (inactive) | > 100 µM (inactive) | 32.1 µM (inactive)
5 | O=c1c2cc(Br)ccc2oc2nc3n(c(=O)c12)CCCS3 | > 100 µM (inactive) | > 100 µM (inactive) | > 100 µM (inactive) | > 100 µM (inactive) | > 100 µM (inactive) | – | > 100 µM (inactive) | > 100 µM (inactive) | > 100 µM (inactive) | > 100 µM (inactive) | > 100 µM (inactive) | > 100 µM (inactive) | > 100 µM (inactive) | > 100 µM (inactive) | > 100 µM (inactive) | 47.5 µM (inactive) | > 100 µM (inactive) | > 100 µM (inactive) | > 100 µM (inactive) | > 100 µM (inactive)
6 | O=C1c2cc([N+](=O)[O-])cc3cc([N+](=O)[O-])cc(c23)C(=O)N1CCCNCCNCCCN1C(=O)c2cc([N+](=O)[O-])cc3cc([N+](=O)[O-])cc(c23)C1=O | 0.0317 µM (active) | 0.041 µM (active) | 0.0222 µM (active) | 0.337 µM (active) | 0.073 µM (active) | 0.0166 µM (active) | 0.0897 µM (active) | 0.0655 µM (active) | 0.975 µM (active) | 0.182 µM (active) | 0.0533 µM (active) | 0.0102 µM (active) | 0.0169 µM (active) | 0.0695 µM (active) | 1.7 µM (inactive) | 0.287 µM (active) | 0.0931 µM (active) | 0.0296 µM (active) | 1.19 µM (inactive) | –
7 | Cc1cn(CC(=S)NCCc2c[nH]c3ccccc23)c(=O)[nH]c1=O | > 100 µM (inactive) | > 100 µM (inactive) | > 100 µM (inactive) | > 100 µM (inactive) | > 100 µM (inactive) | 56.8 µM (inactive) | > 100 µM (inactive) | – | 74.5 µM (inactive) | – | > 100 µM (inactive) | 76.7 µM (inactive) | – | 63.7 µM (inactive) | > 100 µM (inactive) | 35.5 µM (inactive) | 59.3 µM (inactive) | 69.3 µM (inactive) | – | 28.1 µM (inactive)
8 | CC(/C=C/c1ccc([N+](=O)[O-])o1)=N/N1CC(CN2CCOCC2)OC1=O (stereo unspecified) | – | 16.3 µM (inactive) | 17.7 µM (inactive) | 13.6 µM (inactive) | 30.2 µM (inactive) | 25.3 µM (inactive) | 16.1 µM (inactive) | 28.9 µM (inactive) | 18.7 µM (inactive) | 19.4 µM (inactive) | 22.9 µM (inactive) | 11.4 µM (inactive) | 21.5 µM (inactive) | 13.1 µM (inactive) | 6.58 µM (inactive) | 14.7 µM (inactive) | 20.7 µM (inactive) | 16.6 µM (inactive) | 45.1 µM (inactive) | 15.6 µM (inactive)
9 | CSc1ccc(/C=C2\N=C(c3ccccc3)N(NC(=O)c3c(Cl)c(Cl)c(Cl)c(Cl)c3-c3nc4ccccc4[nH]3)C2=O)cc1 | – | 22.4 µM (inactive) | 36.9 µM (inactive) | 17.5 µM (inactive) | 29.9 µM (inactive) | 23.7 µM (inactive) | 26.6 µM (inactive) | 9.59 µM (inactive) | 3.27 µM (inactive) | 21.7 µM (inactive) | 33 µM (inactive) | 25.2 µM (inactive) | 4.43 µM (inactive) | 19.5 µM (inactive) | 25.3 µM (inactive) | 21.7 µM (inactive) | 24.7 µM (inactive) | 28.8 µM (inactive) | – | 2.22 µM (inactive)
10 | O=S(=O)(c1ccccc1)C1(CCC2OCCO2)C=CC2(CC1)OCCO2 (stereo unspecified) | – | > 100 µM (inactive) | > 100 µM (inactive) | > 100 µM (inactive) | > 100 µM (inactive) | > 100 µM (inactive) | > 100 µM (inactive) | > 100 µM (inactive) | > 100 µM (inactive) | – | – | > 100 µM (inactive) | > 100 µM (inactive) | > 100 µM (inactive) | > 100 µM (inactive) | > 100 µM (inactive) | > 100 µM (inactive) | > 100 µM (inactive) | > 100 µM (inactive) | > 100 µM (inactive)
11 | COc1cc(/C=N/c2ccc(Oc3ccc(Cl)cc3)c(Cl)c2)cc(OC)c1OC | – | 17.2 µM (inactive) | 12.4 µM (inactive) | 19.1 µM (inactive) | 34.2 µM (inactive) | 15 µM (inactive) | 20 µM (inactive) | 19.3 µM (inactive) | 28.2 µM (inactive) | 22.9 µM (inactive) | 16.4 µM (inactive) | 13.8 µM (inactive) | 19.3 µM (inactive) | 29.6 µM (inactive) | 15.9 µM (inactive) | 17.7 µM (inactive) | 20.2 µM (inactive) | 29.1 µM (inactive) | 32.9 µM (inactive) | 26.9 µM (inactive)
12 | CCNCC(O)c1ccc(N)c([N+](=O)[O-])c1 (stereo unspecified) | – | > 100 µM (inactive) | > 100 µM (inactive) | – | > 100 µM (inactive) | > 100 µM (inactive) | > 100 µM (inactive) | – | > 100 µM (inactive) | > 100 µM (inactive) | > 100 µM (inactive) | > 100 µM (inactive) | > 100 µM (inactive) | > 100 µM (inactive) | > 100 µM (inactive) | > 100 µM (inactive) | > 100 µM (inactive) | > 100 µM (inactive) | > 100 µM (inactive) | > 100 µM (inactive)
13 | Cc1ccc(S(=O)(=O)N2CCSCCSCCN(S(=O)(=O)c3ccc(C)cc3)CCN(S(=O)(=O)c3ccc(C)cc3)CC2)cc1 | > 100 µM (inactive) | > 100 µM (inactive) | > 100 µM (inactive) | > 100 µM (inactive) | > 100 µM (inactive) | > 100 µM (inactive) | > 100 µM (inactive) | > 100 µM (inactive) | > 100 µM (inactive) | > 100 µM (inactive) | > 100 µM (inactive) | > 100 µM (inactive) | > 100 µM (inactive) | > 100 µM (inactive) | > 100 µM (inactive) | > 100 µM (inactive) | > 100 µM (inactive) | > 100 µM (inactive) | > 100 µM (inactive) | –
14 | C=CN(C=C)C(=O)Cn1cc(-c2ccccc2)nn1 | – | > 100 µM (inactive) | > 100 µM (inactive) | > 100 µM (inactive) | > 100 µM (inactive) | > 100 µM (inactive) | – | > 100 µM (inactive) | > 100 µM (inactive) | > 100 µM (inactive) | > 100 µM (inactive) | > 100 µM (inactive) | > 100 µM (inactive) | > 100 µM (inactive) | > 100 µM (inactive) | > 100 µM (inactive) | > 100 µM (inactive) | > 100 µM (inactive) | > 100 µM (inactive) | > 100 µM (inactive)
15 | N=C(N)NC(CC(=O)O)c1ccccc1 (stereo unspecified) | > 100 µM (inactive) | > 100 µM (inactive) | > 100 µM (inactive) | > 100 µM (inactive) | > 100 µM (inactive) | – | > 100 µM (inactive) | – | > 100 µM (inactive) | > 100 µM (inactive) | > 100 µM (inactive) | > 100 µM (inactive) | > 100 µM (inactive) | > 100 µM (inactive) | > 100 µM (inactive) | > 100 µM (inactive) | > 100 µM (inactive) | > 100 µM (inactive) | > 100 µM (inactive) | > 100 µM (inactive)

Source: ChEMBL document CHEMBL1201862, “PubChem BioAssay data set” (2004)
